Results taken from patent US6596723B1, “Fungal efflux pump inhibitors” (Essential Therapeutics, Inc., priority 2001, dated 2003).
Read-outs that look alike come from different tables or passages of the source.

Legend:
[1] = tested on: clinical isolates of C. tropicalis; experiment: potentiation of fluconazole vs. clinical isolates of C. tropicalis; assay type: cell-based; details: for MIC50 / MIC90: Candida tropicalis
[2] = tested on: clinical isolates of C. krusei; experiment: potentiation of fluconazole vs. clinical isolates of C. krusei; assay type: cell-based; details: Pichia kudriavzevii
[3] = tested on: clinical isolates of C. parapsilosis; experiment: potentiation of fluconazole vs. clinical isolates of C. parapsilosis; assay type: cell-based; details: Lodderomyces parapsilosis
A. fumigatus = experiment: potentiation of Posaconazole vs. A. fumigatus; assay type: cell-based, Aspergillus fumigatus; details: 15 strains
[4] = fluconazole MIC with FEPI at 16-32 μg/ml, C. tropicalis clinical isolates, read-out: MIC90 Flu + FEPI
[5] = fluconazole MIC with FEPI at 16-32 μg/ml, C. krusei clinical isolates, read-out: MIC50 Flu + FEPI
[6] = fluconazole MIC with FEPI at 16-32 μg/ml, C. krusei clinical isolates, read-out: MIC90 Flu + FEPI
[7] = fluconazole MIC with FEPI at 16-32 μg/ml, read-out: MIC50 Flu + FEPI
[8] = fluconazole MIC with FEPI at 16-32 μg/ml, read-out: MIC90 Flu + FEPI

For `OC(Cn1cncn1)(Cn1cncn1)c1ccc(F)cc1F` [fluconazole, reference compound], the MIC50 ([1]; read-out: MIC50 Flu only) was greater than 128 µg/mL, the MIC90 ([1]; read-out: MIC90 Flu only) was greater than 128 µg/mL and the “MIC50 Flu only” value ([1]; listed as Flu) was 128 µg/mL. The MIC90 ([2]; read-out: MIC90 Flu only) was greater than 128 µg/mL, the MIC50 ([2]; fluconazole alone, C. krusei clinical isolates, read-out: MIC50 Flu only) was 64 µg/mL and the MIC50 ([3]; fluconazole alone, read-out: MIC50 Flu only) was 1 µg/mL. It also gave an MIC90 ([3]; fluconazole alone, read-out: MIC90 Flu only) of 4 µg/mL.

`COc1ccc(N(C(=O)Nc2cccc(Cl)c2)C(C)c2nc3ccccc3c(=O)n2N2CCN(C)CC2)c(OC)c1` (stereo not drawn) [Compound 1, 3-(3-Chloro-phenyl)-1-(2,4-dimethoxy-phenyl)-1-{1-[3-(4-methyl-piperazin-1-yl)-4-oxo-3,4-dihydro-quinazolin-2-yl]-ethyl}-urea] gave an MIC50 ([1]; fluconazole MIC with FEPI at 16-32 μg/ml, […], read-out: MIC50 Flu + FEPI) of 0.125 µg/mL, an MIC90 [1, 4] of 2 µg/mL and an MIC50 [2, 5] of 32 µg/mL. It also gave an MIC90 [2, 6] greater than 32 µg/mL, an MIC50 [3, 7] of less than 0.03 µg/mL and an MIC90 [3, 8] of 0.25 µg/mL. The MPC8 (A. fumigatus; concentration of efflux pump inhibitor to reduce MIC of Posaconazole 8-fold) was 8 to 32 µg/mL and the MIC (A. fumigatus; Aspergillus fumigatus, footnote: minimum inhibitor concentration of Posaconazole alone to achieve 80% inhibition) was greater than 32 µg/mL.

Compound `COc1ccc(N(C(=O)Nc2cccc(Cl)c2)C(C)c2nc3ccccc3c(=O)n2N2CCN(CCO)CC2)c(OC)c1` (stereo not drawn) [Compound 3, 3-(3-Chloro-phenyl)-1-(2,4-dimethoxy-phenyl)-1-(1-{3-[4-(2-hydroxy-ethyl)-piperazin-1-yl]-4-oxo-3,4-dihydro-quinazolin-2-yl}-ethyl)-urea] has an MIC50 ([1]; fluconazole MIC with FEPI at 16-32 μg/ml, C. tropicalis clinical isolates, read-out: MIC50 Flu + FEPI) of 0.25 µg/mL, an MIC90 [1, 4] of 8 µg/mL and an MIC50 [2, 5] greater than 32 µg/mL. It also gave an MIC90 [2, 6] greater than 32 µg/mL, an MIC50 [3, 7] of less than 0.03 µg/mL and an MIC90 [3, 8] of 0.5 µg/mL.
